From BindingDB's records for PubMed 7908054 (University of Nebraska, 1994)
“And” between values parts separate entries of the source, which are not always exact repeats. Equal entries are not always repeated.

Experiments:
[1] = biological target: T1, Alpha-2C adrenergic receptor (Rattus norvegicus, UniProt P22086)
T1 sequence (P22086 whole entry): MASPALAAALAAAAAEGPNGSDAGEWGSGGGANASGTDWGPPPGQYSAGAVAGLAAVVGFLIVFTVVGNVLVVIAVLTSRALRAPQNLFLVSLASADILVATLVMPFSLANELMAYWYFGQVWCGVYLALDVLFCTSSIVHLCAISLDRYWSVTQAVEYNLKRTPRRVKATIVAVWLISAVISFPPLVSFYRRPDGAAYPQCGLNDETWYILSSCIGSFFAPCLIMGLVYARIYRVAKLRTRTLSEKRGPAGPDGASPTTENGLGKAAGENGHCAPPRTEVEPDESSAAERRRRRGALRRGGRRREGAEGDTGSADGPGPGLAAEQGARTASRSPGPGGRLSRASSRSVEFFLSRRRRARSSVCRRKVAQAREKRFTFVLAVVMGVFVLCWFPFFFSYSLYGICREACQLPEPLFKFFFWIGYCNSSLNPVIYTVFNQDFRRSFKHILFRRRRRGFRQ

[2] = biological target: T2, Alpha-2B adrenergic receptor (Didelphis virginiana, UniProt O77715)
T2 sequence (O77715 whole entry): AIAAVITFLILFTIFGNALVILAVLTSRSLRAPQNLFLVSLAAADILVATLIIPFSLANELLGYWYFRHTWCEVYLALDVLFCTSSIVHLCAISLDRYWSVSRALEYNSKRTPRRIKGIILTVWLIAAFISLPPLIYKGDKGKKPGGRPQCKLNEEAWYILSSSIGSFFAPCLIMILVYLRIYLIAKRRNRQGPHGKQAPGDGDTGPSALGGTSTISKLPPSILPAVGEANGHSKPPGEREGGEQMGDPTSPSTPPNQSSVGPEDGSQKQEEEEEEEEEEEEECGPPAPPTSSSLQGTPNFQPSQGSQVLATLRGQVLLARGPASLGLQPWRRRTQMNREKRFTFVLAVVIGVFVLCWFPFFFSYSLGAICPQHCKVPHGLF

[3] = biological target: T3, Alpha-2A adrenergic receptor (Bos taurus, UniProt Q28838)
T3 sequence (Q28838 whole entry): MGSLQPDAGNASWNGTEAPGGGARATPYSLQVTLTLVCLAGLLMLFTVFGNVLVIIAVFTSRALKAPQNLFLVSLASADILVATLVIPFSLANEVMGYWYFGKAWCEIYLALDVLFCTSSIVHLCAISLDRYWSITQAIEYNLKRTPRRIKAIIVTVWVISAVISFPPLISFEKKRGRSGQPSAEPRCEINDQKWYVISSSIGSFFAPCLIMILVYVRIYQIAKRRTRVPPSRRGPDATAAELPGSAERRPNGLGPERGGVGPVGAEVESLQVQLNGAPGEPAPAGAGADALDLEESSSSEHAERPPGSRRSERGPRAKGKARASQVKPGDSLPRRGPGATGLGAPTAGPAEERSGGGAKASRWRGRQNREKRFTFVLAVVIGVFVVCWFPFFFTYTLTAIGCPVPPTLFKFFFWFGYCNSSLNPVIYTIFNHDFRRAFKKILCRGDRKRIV

[4] = biological target: T4, Alpha-2A adrenergic receptor (Homo sapiens, UniProt P08913)
T4 sequence (P08913 whole entry): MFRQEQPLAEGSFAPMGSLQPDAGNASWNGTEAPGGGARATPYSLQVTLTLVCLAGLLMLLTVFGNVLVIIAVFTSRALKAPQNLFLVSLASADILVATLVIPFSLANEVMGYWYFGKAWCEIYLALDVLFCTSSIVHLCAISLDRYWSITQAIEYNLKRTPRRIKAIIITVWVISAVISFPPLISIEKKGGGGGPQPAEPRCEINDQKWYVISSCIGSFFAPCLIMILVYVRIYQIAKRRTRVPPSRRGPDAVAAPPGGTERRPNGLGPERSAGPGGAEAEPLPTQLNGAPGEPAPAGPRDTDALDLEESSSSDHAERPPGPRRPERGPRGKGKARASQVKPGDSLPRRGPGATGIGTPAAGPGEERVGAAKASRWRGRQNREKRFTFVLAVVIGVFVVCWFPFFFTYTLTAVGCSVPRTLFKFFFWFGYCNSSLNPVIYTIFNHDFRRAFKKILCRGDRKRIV

| Structure (SMILES) | Ki [1] | Ki [2] | Ki [3] | Ki [4] [nM] |
| --- | --- | --- | --- | --- |
| O=C1NCN(c2ccccc2)C12CCN(CC1COc3ccccc3O1)CC2 (stereo unspecified) [8-(2,3-Dihydro-benzo[1,4]dioxin-2-ylmethyl)-1-phenyl-1,3,8-triaza-spiro[4.5]decan-4-one] | 0.28 nM and 0.7 nM | 0.26 nM and 0.61 nM | 9.33 nM and 12 nM | 9.54 |
| CN1C[C@H](Cn2ccnc2-c2ccccc2)C[C@@H]2c3cccc4[nH]c(Br)c(c34)C[C@H]21 [BAM-1303] | 6.91 nM and 8.7 nM | 0.38 nM and 0.47 nM | 53.7 nM and 200 nM | 0.93 |
| COc1ccccc1N1CCN(CCC2C(=O)c3ccccc3C(C)(C)C2=O)CC1 (stereo unspecified) [NSC_122211] | 1.58 nM and 2.29 nM | 12.9 nM and 46.8 nM | 148 nM and 324 nM | 219 |
| COc1cccc(OC)c1OCCNCC1Oc2ccccc2OC1c1ccccc1 (stereo unspecified) [NSC_185453] | 7.76 nM and 18.6 nM | 0.63 nM and 1 nM | 7.58 nM and 13.5 nM | 2.18 |
| NCC(O)c1ccc(O)c(O)c1 (stereo not drawn) [Noradrenaline,(+)] |  | 28.2 nM | 933 nM and 1050 nM |  |
| CC(C)=CCOc1ccc(Cl)c2c1CCN(C)CC2 [SK&F-104078] | 49 nM and 69.2 nM | 42.6 nM and 55 nM | 81.3 nM and 145 nM | 39.8 |
| Cc1cc(C(C)(C)C)c(O)c(C)c1CC1=NCCN1 [SMR000059324] |  | 15.1 nM | 38 nM and 33.1 nM |  |
| COc1cc2nc(N3CCN(C(=O)c4ccco4)CC3)nc(N)c2cc1OC [[3H]-Minipress] |  | 132 nM and 117 nM | 692 nM and 1320 nM |  |
